Measured values taken from patent publication US20040121316A1 (priority 2002, published 2004).
“And” between values parts separate entries of the source, which are not always exact repeats. Identical values can stand only once. Like-named read-outs stand apart in the source and are kept apart here.

Legend:
[1] = biological target: T1, recombinant HIV-1 protease (Human immunodeficiency virus type 1 group M subtype B, UniProt P04585); assay: biochemical
T1 construct: Enzyme: recombinant HIV-1 protease expressed in E.Coli; purchased Bachem California, Inc. H-9040; host or cells: E. coli

[2] = system: wild-type HIV-1 strain IIIB; assay: microbe, parasite or virus in culture; format: cell-based; set-up: scale not given here
[3] = system: mutant HIV-1 I84V/L90M; assay: Resistance Evaluation, I84V/L90M fold change; format: cell-based; set-up: scale not given here
[4] = biological target: 84V90M HIV protease (Human immunodeficiency virus type 1 group M subtype B, UniProt P04585, I572V/L578M); assay: biochemical; set-up: species or system HIV-1
[5] = system: WT HIV-1; assay: microbe, parasite or virus in culture; format: cell-based
[6] = system: HIV-1 84V90M; assay: microbe, parasite or virus in culture; format: cell-based
[7] = system: HIV-1 30N82I88D; assay: microbe, parasite or virus in culture; format: cell-based; settings: Human immunodeficiency virus 1, read-out: Cell-based assay (MT-4) EC50/nM 30N82I88D
[8] = system: HIV-1 48V54V82A; assay: microbe, parasite or virus in culture; format: cell-based
[9] = system: HIV-1 46I50V; assay: microbe, parasite or virus in culture; format: cell-based
[10] = Human immunodeficiency virus 1, read-out: Cell-based assay (MT-4) EC50/nM WT
[11] = Human immunodeficiency virus 1, read-out: Cell-based assay (MT-4) EC50/nM 84V90M
[12] = Human immunodeficiency virus 1, read-out: Cell-based assay (MT-4) EC50/nM 48V54V82A
[13] = Human immunodeficiency virus 1, read-out: Cell-based assay (MT-4) EC50/nM 46I50V
[14] = read-out: Cell-based assay (MT-4) EC50/nM WT
[15] = Human immunodeficiency virus 1, IIIB
[16] = EC50 of mutant I84V/L90M relative to wild type, class symbols

SMILES: CC(C)CN(C[C@@H](O)[C@H](Cc1ccc(OCP(=O)(Oc2ccccc2)Oc2ccccc2)cc1)NC(=O)OC1CCOC1)S(=O)(=O)c1ccc(N)cc1 (stereo partly shown) [NH2, phenol]
- Ki ([1]; read-out: Ki): 100 to 1000 pM
- EC50 (nM) [2]: + +
- I84V/L90M fold change ([3]; mutant I84V/L90M vs wild type): − (≦3)

SMILES: CCOP(=O)(COCCCN1C(=O)N(Cc2ccc3[nH]nc(N)c3c2)C(Cc2ccccc2)C(O)C(O)C1Cc1ccccc1)OCC (stereo not shown) [OCH2PO3Et2]
- IC50 [4]: 157 nM
- EC50 [5, 10]: 356 nM
- EC50 [6, 11]: > 6000 nM
- EC50 [7]: 145 nM
- EC50 [8, 12]: 175 nM
- EC50 [9, 13]: 138 nM

SMILES: Nc1n[nH]c2ccc(CN3C(=O)N(CCCOCP(=O)(O)O)C(Cc4ccccc4)C(O)C(O)C3Cc3ccccc3)cc12 (stereo not shown) [OCH2PO3H2]
- EC50 [5, 14]: 1070 nM
- EC50 ([6]; MT-4, 84V90M, read-out: Cell-based assay (MT-4) EC50/nM 84V90M): > 6000 nM

SMILES: CCOP(=O)(COc1ccc(CC2C(O)C(O)C(Cc3ccc(O)cc3)N(Cc3ccc(O)cc3)C(=O)N2Cc2ccc(O)cc2)cc1)OCC (stereo not shown) [OH, Ph-pOH, OCH2PO3Et2]
- IC50 [4]: 18 nM
- EC50 [5, 10]: 285 nM
- EC50 [6, 11]: 1910 nM
- EC50 [7]: 211 nM
- EC50 [8, 12]: 986 nM
- EC50 [9, 13]: 1110 nM

SMILES: CCOP(=O)(COc1ccc(CC(NC(=O)OC2CCOC2)C(O)CN(CC(C)C)S(=O)(=O)c2ccc(OC)cc2)cc1)OCC (stereo not shown) [OMe, OEt]
- Ki (pM) [1]: + + and + + +
- EC50 (nM) [2]: + + +
- I84V/L90M fold change ([3]; mutant I84V/L90M vs wild type): + + and + + +

SMILES: COc1ccc(S(=O)(=O)N(CC(C)C)C[C@@H](O)[C@H](Cc2ccc(OCP(=O)(Oc3ccccc3)Oc3ccccc3)cc2)NC(=O)OC2CCOC2)cc1 (stereo partly shown) [OMe, phenol]
- Ki (pM) [1]: + + +
- EC50 (nM) [2]: + + +
- I84V/L90M fold change ([3]; mutant I84V/L90M vs wild type): + (>3 to ≦10)

SMILES: CCOP(=O)(COc1ccc(CC(NC(=O)OC2COC3OCCC23)C(O)CN(CC(C)C)S(=O)(=O)c2ccc(OC)cc2)cc1)Oc1ccccc1 (stereo not shown) [drawing 608 R1=OEt R2=OPh]
- Ki ([1]; Ki, class symbols, Table 10): < 10 pM
- EC50 [2, 15]: < 50 nM

SMILES: COc1ccc(S(=O)(=O)N(CC(C)C)CC(O)C(Cc2ccc(OCP(=O)(O)Oc3ccccc3)cc2)NC(=O)OC2COC3OCCC23)cc1 (stereo not shown) [drawing 608 R1=OH R2=OPh]
- Ki ([1]; Ki, class symbols, Table 10): < 10 pM
- EC50 [2, 15]: > 5000 nM

SMILES: COc1ccc(S(=O)(=O)N(CC(C)C)CC(O)C(Cc2ccc(OCP(=O)(OC)Oc3ccccc3)cc2)NC(=O)OC2COC3OCCC23)cc1 (stereo not shown) [drawing 608 R1=OMe R2=OPh]
- Ki ([1]; Ki, class symbols, Table 10): 10 to 100 pM
- EC50 [2, 15]: < 50 nM

SMILES: COc1ccc(S(=O)(=O)N(CC(C)C)CC(O)C(Cc2ccc(OCP(=O)(NC(C)C(=O)OC(C)C)Oc3ccccc3)cc2)NC(=O)OC2COC3OCCC23)cc1 (stereo not shown) [drawing 614 R1=OPh R2=Ala-iPr]
- Ki ([1]; Ki, class symbols, Table 10): < 10 pM and 10 to 100 pM
- EC50 [2, 15]: < 50 nM

SMILES: CCCCOC(=O)CNP(=O)(COc1ccc(CC(NC(=O)OC2COC3OCCC23)C(O)CN(CC(C)C)S(=O)(=O)c2ccc(OC)cc2)cc1)Oc1ccccc1 (stereo not shown) [drawing 614 R1=OPh R2=Gly-Bu]
- Ki ([1]; Ki, class symbols, Table 10): 10 to 100 pM
- EC50 [2, 15]: 50 to 500 nM
- I84V/L90M fold change [3, 16]: − (≦3)

SMILES: CCOC(=O)COP(=O)(COc1ccc(CC(NC(=O)OC2COC3OCCC23)C(O)CN(CC(C)C)S(=O)(=O)c2ccc(OC)cc2)cc1)Oc1ccccc1 (stereo not shown) [drawing 615 R1=OPh R2=Glc-Et]
- Ki ([1]; Ki, class symbols, Table 10): < 10 pM
- EC50 [2, 15]: 50 to 500 nM
- I84V/L90M fold change [3, 16]: − (≦3)

SMILES: CCOC(=O)C(C)OP(=O)(COc1ccc(CC(NC(=O)OC2COC3OCCC23)C(O)CN(CC(C)C)S(=O)(=O)c2ccc(OC)cc2)cc1)Oc1cccc(CN)c1 [drawing 617 R1=OPb-m-CH2NH2 R2=(S)Lac-Et]
- Ki ([1]; Ki, class symbols, Table 10): 10 to 100 pM
- EC50 [2, 15]: 50 to 500 nM

SMILES: COc1ccc(S(=O)(=O)N(CC(C)C)CC(O)C(CC2=CCN(CCP(=O)(OCc3ccccc3)OCc3ccccc3)CC2)NC(=O)OC2COC3OCCC23)cc1 (stereo not shown) [drawing 673]
- Ki ([1]; read-out: Ki): > 1000 pM
- EC50 (nM) [2]: + +
- I84V/L90M fold change ([3]; mutant I84V/L90M vs wild type): − (≦3)

SMILES: CC(C)CN(CC(O)C(Cc1ccc(OCP(=O)(NC(C)C(=O)OC(C)C)Oc2ccccc2)cc1)NC(=O)OC1CCOC1)S(=O)(=O)c1ccc(N)cc1 (stereo not shown) [drawing 697 R1=OPh R2=Ala-iPr]
- Ki ([1]; Ki, class symbols, Table 10): 100 to 1000 pM
- Ki ([1]; class symbols, Table 10): + +
- EC50 ([2]; class symbols, Table 10): + +
- I84V/L90M fold change [3, 16]: + (>3 to ≦10)

SMILES: CCCCOC(=O)C(C)OP(=O)(COc1ccc(CC(NC(=O)OC2COC3OCCC23)C(O)CN(CC(C)C)S(=O)(=O)c2cccc(N)c2)cc1)Oc1ccccc1 (stereo not shown) [drawing 719]
- Ki ([1]; Ki (pM)): 100 to 1000 pM
- I84V/L90M fold change ([3]; mutant I84V/L90M vs wild type): − (≦3)

SMILES: CCOP(=O)(CCCNC(=O)c1cccc(CN2C(=O)N(Cc3ccc4[nH]nc(N)c4c3)C(Cc3ccccc3)C(O)C(O)C2Cc2ccccc2)c1)OCC (stereo not shown) [drawing 820]
- IC50 ([4]; read-out: 84V90M IC50/nM, Enzymatic assay, 84V90M): 10 nM

SMILES: Nc1n[nH]c2ccc(CN3C(=O)N(Cc4cccc(OCc5ccccc5)c4)C(Cc4ccccc4)C(O)C(O)C3Cc3ccccc3)cc12 (stereo not shown) [m-OBn]
- EC50 [5, 14]: 218 nM
- EC50 ([8]; MT-4, 48V54V82A, read-out: Cell-based assay (MT-4) EC50/nM 48V54V82A): 709 nM
- EC50 ([9]; MT-4, 46I50V, read-out: Cell-based assay (MT-4) EC50/nM 46I50V): 601 nM
